# Source: patent publication US20240327383A1 (priority 2021, published 2024)
# Where “and” joins values, the source holds several entries; their conditions need not be identical. Identical values can stand only once.
# Key:
# [1] = test system: SNI neuropathic pain; set-up: species or system rats; conditions: rat, in vivo
# [2] = test system: SNI neuropathic pain; set-up: species or system rats; conditions: rat, in vivo; remark: listed apart in the source
smiles,measurement,setting,value
NCC1(CC(=O)O)CCCCC1 [Gabapentin],mean relative analgesic rate of Von Frey Hairs,[1],29.71% and 36.26%
same,mean relative analgesic rate of foot weight bearing,[2],20.85% and 17.55% and 14.07%
